Patent US12685312B2, “Sulfonamide apyrase inhibitors” (Texas Crop Science, Inc., priority 2022, dated 2026)

System: apyrase
Assay: Screen for apyrase inhibitors (Method 1, in vitro phosphate-release absorbance assay)
Format: biochemical
Details: inhibitor conc at 1 mM stock, 1 hr room temperature, absorbance 630 nm; rounded average of two assay results
Summary of the method: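 Phosphate-release colorimetric assay (Windsor method) in 60 mM Hepes, 3 mM MgCl2, 3 mM CaCl2, 3 mM ATP, pH 6.5, with compound or DMSO control added. Released phosphate developed with ammonium molybdate and ascorbic acid/TCA, then stopped with citrate/acetic acid.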

SMILES | % Inhibition of Apyrase
Cc1ccc(NC(=O)c2ccc(NS(=O)(=O)c3ccc(F)cc3)cc2)c(C)c1 [I-951, N-(2,4-dimethylphenyl)-4-((4-fluorophenyl)sulfonamido)benzamide] | 38%
O=C(Nc1ccc(OC(F)F)cc1)c1ccc(NS(=O)(=O)c2ccccc2)cc1 [I-952, N-(4-(difluoromethoxy)phenyl)-4-(phenylsulfonamido)benzamide] | 36%
O=C(Nc1ccc2c(c1)OCO2)c1ccc(NS(=O)(=O)c2cccc(F)c2)cc1 [I-953, N-(benzo[d][1,3]dioxol-5-yl)-4-((3-fluorophenyl)sulfonamido)benzamide] | 26%
Cc1ccc(C)c(S(=O)(=O)Nc2ccc(C(=O)Nc3cccc(C#N)c3)cc2)c1 [I-954, N-(3-cyanophenyl)-4-((2,5-dimethylphenyl)sulfonamido)benzamide] | 25%
Cc1ccc(F)c(NC(=O)c2ccc(NS(=O)(=O)c3ccccc3)cc2)c1 [I-955, N-(2-fluoro-5-methylphenyl)-4-(phenylsulfonamido)benzamide] | 23%
COc1ccc(NC(=O)c2ccc(NS(=O)(=O)c3ccc(Cl)cc3F)cc2)cc1 [I-956, 4-((4-chloro-2-fluorophenyl)sulfonamido)-N-(4-methoxyphenyl)benzamide] | 22%
N#Cc1cccc(NC(=O)c2ccc(NS(=O)(=O)c3ccc(F)cc3)cc2)c1 [I-957, N-(3-cyanophenyl)-4-((4-fluorophenyl)sulfonamido)benzamide] | 20%
COc1ccc(NC(=O)c2ccc(NS(=O)(=O)c3ccc(F)cc3)cc2)cc1OC [I-958, N-(3,4-dimethoxyphenyl)-4-((4-fluorophenyl)sulfonamido)benzamide] | 19%
Cc1cc(F)ccc1S(=O)(=O)Nc1ccc(C(=O)Nc2cccc(C#N)c2)cc1 [I-959, N-(3-cyanophenyl)-4-((4-fluoro-2-methylphenyl)sulfonamido)benzamide] | 17%
O=C(Nc1ccccc1OC(F)F)c1ccc(NS(=O)(=O)c2ccccc2)cc1 [I-960, N-(2-(difluoromethoxy)phenyl)-4-(phenylsulfonamido)benzamide] | 14%
NS(=O)(=O)c1ccc(NC(=O)c2ccc(NS(=O)(=O)c3ccc(F)c(Cl)c3)cc2)cc1 [I-961, 4-((3-chloro-4-fluorophenyl)sulfonamido)-N-(4-sulfamoylphenyl)benzamide] | 14%
N#Cc1cccc(NC(=O)c2ccc(NS(=O)(=O)c3ccc4c(c3)OCCO4)cc2)c1 [I-962, N-(3-cyanophenyl)-4-((2,3-dihydrobenzo[b][1,4]dioxine)-6-sulfonamido)benzamide] | 11%
CC(=O)Nc1ccc(NC(=O)c2ccc(NS(=O)(=O)c3ccc(Br)cc3)cc2)cc1 [I-963, N-(4-acetamidophenyl)-4-((4-bromophenyl)sulfonamido)benzamide] | 10%
O=C(c1ccc(NS(=O)(=O)c2cc(Cl)ccc2Cl)cc1)N1CCc2ccccc21 [I-964, 2,5-dichloro-N-(4-(indoline-1-carbonyl)phenyl)benzenesulfonamide] | 10%
O=C(c1ccc(NS(=O)(=O)c2ccc(F)cc2)cc1)N1CCc2ccccc21 [I-965, 4-fluoro-N-(4-(indoline-1-carbonyl)phenyl)benzenesulfonamide] | 3%
O=C(Nc1ccc(S(=O)(=O)Nc2ccccc2Cl)cc1)c1ccc(C(F)(F)F)cc1 [I-971, N-(4-(N-(2-chlorophenyl)sulfamoyl)phenyl)-4-(trifluoromethyl)benzamide] | 67%
O=C(Nc1ccc(S(=O)(=O)Nc2ccc(F)c(Cl)c2)cc1)c1cccc([N+](=O)[O-])c1 [I-972, N-(4-(N-(3-chloro-4-fluorophenyl)sulfamoyl)phenyl)-3-nitrobenzamide] | 66%
COc1cccc(C(=O)Nc2ccc(S(=O)(=O)Nc3ccccc3OC)cc2)c1 [I-973, 3-methoxy-N-(4-(N-(2-methoxyphenyl)sulfamoyl)phenyl)benzamide] | 63%
Cc1ccc(C(=O)Nc2ccc(S(=O)(=O)Nc3ccc(F)cc3)cc2)cc1Br [I-974, 3-bromo-N-(4-(N-(4-fluorophenyl)sulfamoyl)phenyl)-4-methylbenzamide] | 63%
O=C(Nc1ccc(S(=O)(=O)Nc2cccc(C(F)(F)F)c2)cc1)c1cc([N+](=O)[O-])cc([N+](=O)[O-])c1 [I-975, 3,5-dinitro-N-(4-(N-(3-(trifluoromethyl)phenyl)sulfamoyl)phenyl) benzamide] | 62%
O=C(Nc1ccc(S(=O)(=O)Nc2ccc(Cl)cc2)cc1)c1cccc(C(F)(F)F)c1 [I-976, N-(4-(N-(4-chlorophenyl)sulfamoyl)phenyl)-3-(trifluoromethyl)benzamide] | 60%
O=C(Nc1ccc(S(=O)(=O)Nc2cccc(C(F)(F)F)c2)cc1)c1ccc(F)cc1Cl [I-977, 2-chloro-4-fluoro-N-(4-(N-(3-(trifluoromethyl)phenyl)sulfamoyl)phenyl) benzamide] | 59%
COc1ccccc1C(=O)Nc1ccc(S(=O)(=O)Nc2ccc(Cl)cc2)cc1 [I-978, N-(4-(N-(4-chlorophenyl)sulfamoyl)phenyl)-2-methoxybenzamide] | 59%
O=C(Nc1ccc(S(=O)(=O)Nc2cccc(C(F)(F)F)c2)cc1)c1ccc(Cl)c([N+](=O)[O-])c1 [I-979, 4-chloro-3-nitro-N-(4-(N-(3-(trifluoromethyl)phenyl)sulfamoyl)phenyl) benzamide] | 58%
O=C(Nc1ccc(S(=O)(=O)N2CCc3ccccc32)cc1)c1cccc([N+](=O)[O-])c1 [I-980, N-(4-(indolin-1-ylsulfonyl)phenyl)-3-nitrobenzamide] | 58%

Results, then the molecule that gave them:

% Inhibition of Apyrase | SMILES
57% | COc1ccccc1NS(=O)(=O)c1ccc(NC(=O)c2ccc3c(c2)OCCO3)cc1 [I-981, N-(4-(N-(2-methoxyphenyl)sulfamoyl)phenyl)-2,3-dihydrobenzo[b][1,4]dioxine-6-carboxamide]
57% | O=C(Nc1ccc(S(=O)(=O)Nc2ccccc2Cl)cc1)c1ccc(Cl)c(Cl)c1 [I-982, 3,4-dichloro-N-(4-(N-(2-chlorophenyl)sulfamoyl)phenyl)benzamide]
57% | COc1ccccc1NS(=O)(=O)c1ccc(NC(=O)c2ccccc2SCC2CCCO2)cc1 (stereo not shown) [I-985, N-(4-(N-(2-methoxyphenyl)sulfamoyl)phenyl)-2-(((tetrahydrofuran-2-yl)methyl)thio)benzamide]
56% | CCOc1ccc(NS(=O)(=O)c2ccc(NC(=O)c3cccc(OC(F)F)c3)cc2)cc1 [I-986, 3-(difluoromethoxy)-N-(4-(N-(4-ethoxyphenyl)sulfamoyl)phenyl)benzamide]
55% | NS(=O)(=O)c1cc(C(=O)Nc2ccc(S(=O)(=O)Nc3ccc(Cl)cc3)cc2)ccc1Cl [I-987, 4-chloro-N-(4-(N-(4-chlorophenyl)sulfamoyl)phenyl)-3-sulfamoylbenzamide]
55% | COc1ccc(C(=O)Nc2ccc(S(=O)(=O)Nc3ccc(Cl)cc3)cc2)cc1 [I-988, N-(4-(N-(4-chlorophenyl)sulfamoyl)phenyl)-4-methoxybenzamide]
54% | Cc1ccc(NS(=O)(=O)c2ccc(NC(=O)c3cccc(S(C)(=O)=O)c3)cc2)cc1C [I-989, N-(4-(N-(3,4-dimethylphenyl)sulfamoyl)phenyl)-3-(methylsulfonyl)benzamide]
53% | O=C(Nc1ccc(S(=O)(=O)Nc2cccc(Cl)c2)cc1)c1ccc(F)cc1 [I-990, N-(4-(N-(3-chlorophenyl)sulfamoyl)phenyl)-4-fluorobenzamide]
53% | COc1ccc(NS(=O)(=O)c2ccc(NC(=O)c3cccc(S(=O)(=O)N(C)C)c3)cc2)cc1 [I-991, 3-(N,N-dimethylsulfamoyl)-N-(4-(N-(4-methoxyphenyl)sulfamoyl)phenyl)benzamide]
49% | COc1ccc(NS(=O)(=O)c2ccc(NC(=O)c3cc(Cl)cc(Cl)c3)cc2)cc1 [I-992, 3,5-dichloro-N-(4-(N-(4-methoxyphenyl)sulfamoyl)phenyl)benzamide]
48% | COc1ccccc1NS(=O)(=O)c1ccc(NC(=O)c2cccc([N+](=O)[O-])c2)cc1 [I-993, N-(4-(N-(2-methoxyphenyl)sulfamoyl)phenyl)-3-nitrobenzamide]
47% | O=C(Nc1ccc(S(=O)(=O)Nc2ccccc2Cl)cc1)c1ccc2c(c1)OCCO2 [I-994, N-(4-(N-(2-chlorophenyl)sulfamoyl)phenyl)-2,3-dihydrobenzo[b][1,4]dioxine-6-carboxamide]
46% | COc1ccccc1C(=O)Nc1ccc(S(=O)(=O)Nc2cccc(Cl)c2)cc1 [I-995, N-(4-(N-(3-chlorophenyl)sulfamoyl)phenyl)-2-methoxybenzamide]
46% | COc1ccc(NS(=O)(=O)c2ccc(NC(=O)c3ccccc3OC(F)F)cc2)cc1OC [I-996, 2-(difluoromethoxy)-N-(4-(N-(3,4-dimethoxyphenyl)sulfamoyl)phenyl)benzamide]
43% | COc1ccccc1NS(=O)(=O)c1ccc(NC(=O)c2cccc(C#N)c2)cc1 [I-997, 3-cyano-N-(4-(N-(2-methoxyphenyl)sulfamoyl)phenyl)benzamide]
34% | O=C(Nc1ccc(S(=O)(=O)Nc2cccc(C(F)(F)F)c2)cc1)c1cccc(F)c1 [I-998, 3-fluoro-N-(4-(N-(3-(trifluoromethyl)phenyl)sulfamoyl)phenyl) benzamide]
29% | COc1ccccc1NS(=O)(=O)c1ccc(NC(=O)c2ccc(C#N)cc2)cc1 [I-999, 4-cyano-N-(4-(N-(2-methoxyphenyl)sulfamoyl)phenyl)benzamide]
28% | O=C(Nc1ccc(S(=O)(=O)Nc2cccc(C(F)(F)F)c2)cc1)c1ccccc1 [I-1000, N-(4-(N-(3-(trifluoromethyl)phenyl)sulfamoyl)phenyl) benzamide]
